Experimental data as given in patent US20190177284A1, “TETRAZOLYL-CONTAINING CYCLOPROPANECARBOXAMIDES” (Bayer Pharma Aktiengesellschaft, priority 2017, published 2019).

molecular target: T1, human Bradykinin B1 receptor (Homo sapiens, UniProt P46663); assay: Calcium flux Assay (FLIPR) with cells expressing human Bradykinin B1 receptor (hB1); format: cell-based; conditions: absence of 0.1% BSA in assay buffer; CHO-K1 cell line expressing human B1 receptor; agonist Lys-(Des-Arg)-Bradykinin; read-out: hB1 free IC50
T1 construct: host or cells: CHO-K1
T1 sequence (P46663 1-353): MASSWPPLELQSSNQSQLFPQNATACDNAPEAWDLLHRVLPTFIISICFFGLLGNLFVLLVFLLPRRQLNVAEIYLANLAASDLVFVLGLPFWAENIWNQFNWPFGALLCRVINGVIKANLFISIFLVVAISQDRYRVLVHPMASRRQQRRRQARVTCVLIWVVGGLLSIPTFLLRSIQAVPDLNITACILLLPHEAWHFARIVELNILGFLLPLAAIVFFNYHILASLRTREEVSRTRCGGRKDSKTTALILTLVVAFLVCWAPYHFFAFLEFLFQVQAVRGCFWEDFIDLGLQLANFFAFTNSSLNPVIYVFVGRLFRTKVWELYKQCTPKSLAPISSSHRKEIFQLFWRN
Description: The potency to inhibit the Bradykinin B1 receptor was determined for the compound examples of this invention in a cell-based fluorescent calcium-mobilisation assay. The assay measures the ability of compound examples to inhibit Bradykinin B1 receptor agonist-induced increase of intracellular free Ca^2+ in the cell line expressing Bradykinin B1 receptor. Specifically, calcium indicator-loaded cells are pre-incubated in the absence or presence of different concentrations of compound examples followed by the stimulation with a selective Bradykinin B1 receptor agonist peptide. The change of the intracellular Ca^2+ concentration is monitored with a fluorescent plate reader FLIPR^TETRA®
Calcium flux Assays (FLIPR) with cells expressing human Bradykinin B1 receptor (hB1) Calcium flux Assay (FLIPR) with recombinant cells for Bradykinin B1 receptor antagonist, either in the presence (hB1 IC50) or absence (hB1 free IC50) of 0.1% Bovine Serum Albumin (BSA) in assay buffer.
CHO—K1 cell line expressing human B1 receptor was purchased from Euroscreen (Gosselies, Belgium, with reference name hB1-D1). The cells were grown in Nutrient Mixture Ham's F12 (Sigma) containing 10% Foetal bovine serum (Sigma) and 400 μg/mL G418 (Sigma), 5 μg/mL puromycin (Sigma).
For the calcium flux assay, 80% confluent cells were detached from the culture vessels with Versene (Gibco), and seeded into 384-well plates (Cell binding Surface; Corning, N.Y.; #3683) at a density of 15,000 cells per well. Cells were seeded in a volume of 50 μL in medium without antibiotics and incubated overnight in a humidified atmosphere with 5% CO2 at 37° C. […] The calcium indicator loaded cells were incubated at 37° C. for 2 hrs. Extracellular dye was then removed and each well was filled with 45 μL of assay buffer. Cell plates were kept in dark until used. Example compounds were assayed at 8 concentrations in triplicate. Serial 10-fold dilutions in 100% DMSO were made at a 100-times higher concentration than the final concentration, and then diluted 1:10 in assay buffer. 5 μL of each diluted compound was added to the well of cell plates (yielding final concentration with 1% DMSO), and incubated for 30 min at 28° C. before the addition of B1 receptor agonist on the FLIPR instrument.
Agonist plates contained the agonist Lys-(Des-Arg)-Bradykinin (Bachem, Brackley) at 3.5×EC90 in assay buffer with 1% DMSO. The addition of agonist 20 μl per well to the assay plate was carried out on the FLIPR instrument while continuously monitoring Ca^2+-dependent fluorescence at 538 nm. A peptide antagonist Lys-(Des-Arg-Leu)-Bradykinin (Bachem, Brackley) at 20 μM was used to determine the full inhibition as control.
Peak fluorescence was used to determine the response to agonist obtained at each concentration of example compound by the following equation:
% Response=100*(RFU(example compound)−RFU(control))/(RFU(DMSO)−RFU(control)) • RFU means relative fluorescence units. • Control means full inhibition by the peptide antagonist Lys-(Des-Arg-Leu)-Bradykinin at 20
The response values were plotted against the logarithm of the example compound concentrations. The example compounds were tested in triplicates per plate and mean values were plotted in Excel XLfit to determine IC50 values, percentage of maximal inhibition and the Hill slopes.
IC50 values of example compounds in Calcium flux Assay (FLIPR) as shown in table 1 were determined according to the protocol described above in the absence of 0.1% BSA in assay buffer.

Point of comparison: `CN(CC1CCCCC1)C(=O)c1ccc(NC(=O)C2(c3ccc(C(F)(F)F)cc3F)CC2)cc1-c1nnn[nH]1` [Example 12, N-(cyclohexylmethyl)-4-[({1-[2-fluoro-4-(trifluoromethyl)phenyl]cyclopropyl}carbonyl)amino]-N-methyl-2-(1H-tetrazol-5-yl)benzamide], IC50 0.412 µM. Against it:
- CCC(C)OC(=O)c1ccc(NC(=O)C2(c3cccc(Cl)c3)CC2)cc1-c1nnn[nH]1 (racemic) [Example 3, sec-Butyl 4-({[1-(3-chlorophenyl)cyclopropyl]carbonyl}amino)-2-(1H-tetrazol-5-yl)benzoate] — 41-fold lower, 0.01 µM
- CCC(C)OC(=O)c1ccc(NC(=O)C2(c3ccc(F)c(F)c3)CC2)cc1-c1nnn[nH]1 (racemic) [Example 8, sec-Butyl 4-({[1-(3,4-difluorophenyl)cyclopropyl]carbonyl}amino)-2-(1H-tetrazol-5-yl)benzoate] — 20-fold lower, 0.021 µM
- CCC(C)OC(=O)c1ccc(NC(=O)C2(c3ccc(C)cc3F)CC2)cc1-c1nnn[nH]1 (racemic) [Example 9, sec-Butyl 4-({[1-(2-fluoro-4-methylphenyl)cycloporopyl]carbonyl}amino)-2-(1H-tetrazol-5-yl)benzoate] — 24-fold lower, 0.017 µM
- CCC(C)OC(=O)c1ccc(NC(=O)C2(c3ccc(C(F)(F)F)cc3F)CC2)cc1-c1nnn[nH]1 (racemic) [Example 10, sec-Butyl 4-[({1-[2-fluoro-4-(trifluoromethyl)phenyl]cyclopropyl}carbonyl)amino]-2-(1H-tetrazol-5-yl)benzoate] — 100-fold lower, 0.004 µM
- CCC(C)OC(=O)c1ccc(NC(=O)C2(c3ccc(OC(F)(F)F)cc3F)CC2)cc1-c1nnn[nH]1 (racemic) [Example 11, sec-Butyl 4-[({1-[2-fluoro-4-(trifluoromethoxy)phenyl]cyclopropyl}carbonyl)amino]-2-(1H-tetrazol-5-yl)benzoate] — 140-fold lower, 0.003 µM
- Cc1cccc([C@@H]2C[C@H]2C(=O)Nc2ccc(C(=O)OC3CCCC3)c(-c3nnn[nH]3)c2)c1 (racemic) [Example 13, Cyclopentyl-4-({[2-(3-methylphenyl)cyclopropyl]carbonyl}amino)-2-(1H-tetrazol-5-yl)benzoate] — 8.8-fold lower, 0.047 µM
- O=C(OC1CCOC1)c1ccc(NC(=O)C2(c3ccc(C(F)(F)F)cc3F)CC2)cc1-c1nnn[nH]1 (racemic) [Example 18, Tetrahydrofuran-3-yl 4-[({1-[2-fluoro-4-(trifluoromethyl)phenyl]cyclopropyl}carbonyl)amino]-2-(1H-tetrazol-5-yl)benzoate] — 59-fold lower, 0.007 µM
- COC(C)COC(=O)c1ccc(NC(=O)C2(c3ccc(C(F)(F)F)cc3F)CC2)cc1-c1nnn[nH]1 (racemic) [Example 31, 2-Methoxypropyl 4-[({1-[2-fluoro-4-(trifluoromethyl)phenyl]cyclopropyl}carbonyl)amino]-2-(1H-tetrazol-5-yl)benzoate] — 46-fold lower, 0.009 µM
- COCC(C)OC(=O)c1ccc(NC(=O)C2(c3ccc(C(F)(F)F)cc3F)CC2)cc1-c1nnn[nH]1 (racemic) [Example 32, 1-Methoxypropan-2-yl 4-[({1-[2-fluoro-4-(trifluoromethyl)phenyl]cyclopropyl}carbonyl)amino]-2-(1H-tetrazol-5-yl)benzoate] — 32-fold lower, 0.013 µM
- COC1CCCN(C(=O)c2ccc(NC(=O)C3(c4ccc(C(F)(F)F)cc4F)CC3)cc2-c2nnn[nH]2)C1 (racemic) [Example 35, 1-[2-Fluoro-4-(trifluoromethyl)phenyl]-N-{4-[(3-methoxypiperidin-1-yl)carbonyl]-3-(1H-tetrazol-5-yl)phenyl}cyclopropanecarboxamide] — within 1.5-fold, 0.341 µM
- CCC(C)N(C)C(=O)c1ccc(NC(=O)C2(c3ccc(C(F)(F)F)cc3F)CC2)cc1-c1nnn[nH]1 (single isomer, unassigned) [Example 58, N-sec-butyl-4-[({1-[2-fluoro-4-(trifluoromethyl)phenyl]cyclopropyl}carbonyl)-amino]-N-methyl-2-(1H-tetrazol-5-yl)benzamide] — 4.5-fold higher, 1.85 µM
- CCOC(=O)c1ccc(NC(=O)C2(c3cccc(Cl)c3)CC2)cc1-c1nnn[nH]1 [Example 1, Ethyl 4-({[1-(3-chlorophenyl)cyclopropyl]carbonyl}amino)-2-(1H-tetrazol-5-yl)benzoate] — 3-fold lower, 0.136 µM
- O=C(OC1CCCC1)c1ccc(NC(=O)C2(c3cccc(Cl)c3)CC2)cc1-c1nnn[nH]1 [Example 2, Cyclopentyl 4-({[1-(3-chlorophenyl)cyclopropyl]carbonyl}amino)-2-(1H-tetrazol-5-yl)benzoate] — 20-fold lower, 0.021 µM
- O=C(OC1CCCC1)c1ccc(NC(=O)C2(c3ccc(F)c(F)c3)CC2)cc1-c1nnn[nH]1 [Example 4, Cyclopentyl 4-({[1-(3,4-difluorophenyl)cyclopropyl]carbonyl}amino)-2-(1H-tetrazol-5-yl)benzoate] — 7-fold lower, 0.059 µM
- Cc1ccc(C2(C(=O)Nc3ccc(C(=O)OC4CCCC4)c(-c4nnn[nH]4)c3)CC2)c(F)c1 [Example 5, Cyclopentyl 4-({[1-(2-fluoro-4-methylphenyl)cyclopropyl]carbonyl}amino)-2-(1H-tetrazol-5-yl)benzoate] — 16-fold lower, 0.025 µM
- O=C(OC1CCCC1)c1ccc(NC(=O)C2(c3ccc(C(F)(F)F)cc3F)CC2)cc1-c1nnn[nH]1 [Example 6, Cyclopentyl 4-[({1-[2-fluoro-4-(trifluoromethyl)phenyl]cyclopropyl}carbonyl)amino]-2-(1H-tetrazol-5-yl)benzoate] — 46-fold lower, 0.009 µM
- O=C(OC1CCCC1)c1ccc(NC(=O)C2(c3ccc(OC(F)(F)F)cc3F)CC2)cc1-c1nnn[nH]1 [Example 7, Cyclopentyl 4-[({1-[2-fluoro-4-(trifluoromethoxy)phenyl]cyclopropyl}carbonyl)amino]-2-(1H-tetrazol-5-yl)benzoate] — 82-fold lower, 0.005 µM
- CC1(OC(=O)c2ccc(NC(=O)C3(c4ccc(C(F)(F)F)cc4F)CC3)cc2-c2nnn[nH]2)CCCC1 [Example 14, 1-Methylcyclopentyl 4-[({1-[2-fluoro-4-(trifluoromethyl)phenyl]cyclopropyl}-carbonyl)amino]-2-(1H-tetrazol-5-yl)benzoate] — 2.4-fold higher, 0.999 µM
- CCC(C)(C)OC(=O)c1ccc(NC(=O)C2(c3ccc(C(F)(F)F)cc3F)CC2)cc1-c1nnn[nH]1 [Example 15, 2-Methylbutan-2-yl 4-[({1-[2-fluoro-4-(trifluoromethyl)phenyl]cyclopropyl}carbonyl)amino]-2-(1H-tetrazol-5-yl)benzoate] — 13-fold higher, 5.22 µM
- O=C(OC1CCCCC1)c1ccc(NC(=O)C2(c3ccc(C(F)(F)F)cc3F)CC2)cc1-c1nnn[nH]1 [Example 16, Cyclohexyl 4-[({1-[2-fluoro-4-(trifluoromethyl)phenyl]cyclopropyl}carbonyl)amino]-2-(1H-tetrazol-5-yl)benzoate] — 82-fold lower, 0.005 µM
- COCCOC(=O)c1ccc(NC(=O)C2(c3ccc(C(F)(F)F)cc3F)CC2)cc1-c1nnn[nH]1 [Example 17, 2-Methoxyethyl 4-[({1-[2-fluoro-4-(trifluoromethyl)phenyl]cyclopropyl}-carbonyl)amino]-2-(1H-tetrazol-5-yl)benzoate] — 24-fold lower, 0.017 µM
- O=C(O[C@H]1CCOC1)c1ccc(NC(=O)C2(c3ccc(C(F)(F)F)cc3F)CC2)cc1-c1nnn[nH]1 [Example 19, (3S)-Tetrahydrofuran-3-yl 4-[({1-[2-fluoro-4-(trifluoromethyl)phenyl]cyclopropyl}carbonyl)amino]-2-(1H-tetrazol-5-yl)benzoate] — 32-fold lower, 0.013 µM
